Converted amounts (≈) assume the structure as drawn. Read-outs that look alike come from different tables or passages of the source.
What was measured:
[1] = cited from earlier work; for water solubility: atazenavir: as a free base
[2] = free base; preclinical animal models; cited from earlier work
[3] = In vitro dissolution rate of the AZI (2015 Chinese pharmacopoeia, deionized water, 37° C., UV 482 nm); format: physicochemical; conditions: at 120 min, 100 rpm
Method: The original AZI powder was dissolved in anhydrous ethanol to form a solution with a concentration of 2 mg/ml under ultrasonic dispersion at room temperature. Subsequently, hydrochloric acid (0.1 M) was added into the AZI solution to form a series of AZI solution with different concentrations (16, 32, 48, 64, 80, 96 μg/ml). Then, 5 ml of each AZI sample and 5 ml of sulfuric acid (73.5%) were added into a test tube and mixed, after that the resultant mixture was kept for reaction for 30 min at the room temperature. Finally, UV absorption was measured at a wavelength of 482 nm to determine the concentration of the AZI solution, and a standard AZI curve can be plotted.
The dissolution rate was determined according to the method of 2015 Chinese pharmacopoeia (XC II). Firstly, 2 mg of AZI was placed in 100 ml of deionized water, and stirred at 100 rpm and 37° C. […]
Then, 2 ml sulfuric acid (73.5%) and 2 ml of the resultant filtrate were added to a test tube to form a mixture, and the mixture was kept for 30 min. Finally, UV absorption was measured at a wavelength of 482 nm to determine the AZI concentration. The dissolution rate of AZI was calculated using Eq. 2: Dissolution rate (%)=(Cn×V2+C1×V1+C2×V1+ . . . +Cn-1×V1)×100%/m (2) […]

In the case of `CCOc1cc(CC(=O)N[C@@H](CC(C)C)c2ccccc2N2CCCCC2)ccc1C(=O)O` [repaglinide], the water solubility [1] is given as 37 µg/mL (≈ 81.8 µM).

In the case of `COC(=O)N[C@H](C(=O)N[C@@H](Cc1ccccc1)[C@@H](O)CN(Cc1ccc(-c2ccccn2)cc1)NC(=O)[C@@H](NC(=O)OC)C(C)(C)C)C(C)(C)C` [atazenavir], the water solubility [1] is listed as under 1 µg/mL and the oral bioavailability [2] is listed as “poor oral bioavailability”.

In the case of `CC[C@H]1OC(=O)[C@H](C)[C@@H](O[C@H]2C[C@@](C)(OC)[C@@H](O)[C@H](C)O2)[C@H](C)[C@@H](O[C@@H]2O[C@H](C)C[C@H](N(C)C)[C@H]2O)[C@](C)(O)C[C@@H](C)CN(C)[C@H](C)[C@@H](O)[C@]1(C)O` [original AZI, Azithromycin], the “dissolution rate of AZI” value [3] is reported as 1.31%.

In the case of `CC(C(=O)O)c1ccc2c(c1)[nH]c1ccc(Cl)cc12` (stereo not drawn) [carprofen], the solubility in water [1] is given as 3.79 µg/mL (≈ 13.8 µM) and the solubility in water ([1]; value in brackets) is given as 3.79 µg/mL (≈ 13.8 µM).

Source: patent publication US11723867B2, “Method for preparing pharmaceutical composition and pharmaceutical composition” (UPM-Kymmene Corporation, priority 2019, dated 2023)
